# Assay results reported in US9011915B2, “Conveniently implantable sustained release drug compositions” (Ramscor, Inc., priority 2004, dated 2015).
# Where two headings read alike, the source gives them in different places.
# Experiments:
# [1] = 3:1 dexamethasone:ciprofloxacin in benzyl benzoate
# Experimental: The vials for the release studies were labeled and the weight of each vial was recorded. To each vial was added 3-4 grams of 0.9% saline solution and the weight was recorded. Then the SRF was injected or placed at the bottom of the vial. The weight of the SRF was recorded. An additional amount of 0.9% saline solution was added to a total of 10 grams of saline. The resulting vial was kept in an incubator or water bath at 37° C. Samples were taken periodically to measure the release profile of dexamethasone or triamcinolone acetonide using a HPLC instrument. Sampling protocol was carried out according to the following procedure: Using a disposable pipette, 8 grams of the saline solution containing dexamethasone or triamcinolone acetonide was withdrawn carefully from each vial. 8 grams of 0.9% saline solution was then added to each vial. The vials were kept at 37° C. after sampling.
# The HPLC analysis was carried out using a Beckman Gold Instrument with an autosampler. […] Calibrators and samples were injected onto a C18 column (Rainin, 250×4.6 mm) containing a guard column (C18, 4.6 mm×1 cm) and analyzed, respectively. […] The dexamethasone or triamcinolone acetonide (retention times, 6-4 minutes) concentration of each sample was calculated from the standard curve using the software of the Beckman Gold instrument.
# [2] = continuously exceeded over an extended period of time; cited from earlier work
# [3] = cited from earlier work
# [4] = ingested 650 mg 2-ABA, cited from earlier work; for maximum synovial fluid levels / time of maximum synovial fluid levels: human knee
# [5] = cited from earlier work; remark: listed apart in the source
# COX-1 and COC-2 enzymes = settings: acetylation of COX enzymes, in the eye; cited from earlier work
# blood glucose levels = assay: Injected versus transdermal delivery of insulin, blood glucose levels; format: in vivo, mouse
# Experimental: The comparison of injected versus transdermal delivery of several formulation of insulin was studied in a mouse model. One mg of porcine insulin was injected IP (intraperitoneal) into a mouse. […] One mg of porcine insulin mixed with 0.1 ml of tocopherol acetate was applied topically on the skin of a shaved mouse.
# Porcine insulin (20 mg) was mixed in 199 mg/ml of tocopheryl acetate and formed a paste (or gel) which and was applied to the backs of shaved albino mice as follows: Mouse #1 was treated with 39.8 mg of insulin/tocopherol acetate paste, equaling 3.6 mg of insulin; mouse #2 was treated with 75.2 mg of insulin/tocopherol acetate paste, equaling 6.9 mg of insulin. Tail blood glucose levels were determined by Home Diagnostics, Inc. True Track smart system at intervals depicted in FIG. 22.
# [6] = cited from earlier work; remark: listed apart in the source
# [7] = In vivo release of dexamethasone from 25% dexamethasone in benzyl benzoate (DB) injected into posterior segment, vitreous humor HPLC; design: species or system rabbit; settings: for mean vitreous level of dexamethasone: 25% formulation in benzyl benzoate
# Experimental: Benzyl benzoate (BB) served as placebo.
# The in vivo release of the DB composition was studied in twenty-four rabbits. Twenty-five μl of 25% DB was injected into the posterior segment of one eye of twelve animals and the contralateral eye received a placebo. Another twelve animals received 50 μl of the DB in one eye and 50 μl of the BB placebo in the second eye. Animals were euthanized at the appropriate time points and vitreous humor samples were removed surgically. Dexamethasone concentration was determined by high pressure liquid chromatography (HPLC) as described in Example 5.
# [8] = In vivo release of rapamycin from TEAC formulation in vitreous cavity, LC-MS; design: species or system NZW rabbits; settings: 5.0 mg rapamycin in 10:90 rapamycin:TEAC mixture
# Experimental: Five (5.0) mg rapamycin contained in a 10:90 rapamycin:TEAC mixture were injected into the vitreous cavity of one eye in three 4.0-4.5 kg. NZW rabbits. Vitreous sampling was performed in each animal, and the concentration of released Rapamycin determined by liquid chromatography and mass spectrometry.
# [9] = 1 mg porcine insulin injected IP
# [10] = 1 mg porcine insulin mixed with 0.1 ml tocopherol acetate, injected IP
compound,measurement,setting,value
O=C(O)c1cn(C2CC2)c2cc(N3CCNCC3)c(F)cc2c1=O [ciprofloxacin],duration of release,[1],sixty
"CC1(C)O[C@@H]2C[C@H]3[C@@H]4CCC5=CC(=O)C=C[C@]5(C)[C@@]4(F)[C@@H](O)C[C@]3(C)[C@]2(C(=O)CO)O1 [TA, triamcinolone acetonide]","concentration above which harmful complications (glaucoma, cataracts, cytotoxicity) can arise",[2],exceed 10 μg/ml
"CC(=O)Oc1ccccc1C(=O)O [2-ABA, 2-acetyloxybenzoic acid]",combined 2-ABA/2-HBA levels in the plasma,"[3]; ingestion of 0.650-1.3 g 2-ABA, humans",20 to 100 µg/mL
same,fraction hydrolyzed to 2-HBA in the plasma,[3]; within 30 minutes,about 97%
same,maximum synovial fluid levels,[4],2.5 µg/mL
same,time of maximum synovial fluid levels,[4],19.4 min
same,maximum plasma levels,[4],3.3 µg/mL
same,time of maximum plasma levels,[4],7.7 min
same,time until gone in the blood,[4],75 min
same,time in which an initial level is halved in the vitreous,[5]; initial level of 4 μg/ml,1.5 to 2 h
same,concentration of 2-ABA/2-HBA in the vitreous,"[5]; rabbit eyes, at plasma levels of about 20-100 μg/ml",5 to 10 µg/mL
same,ID50,COX-1 and COC-2 enzymes,0.9 to 9.0 µg/mL
porcine insulin: porcine insulin,recovery from hypoglycemia,blood glucose levels; [9],never recovered
same,time to precipitous drop in glucose level,blood glucose levels; [9],one-half
same,recovery from hypoglycemia,blood glucose levels; [10],did not recover
same,time over which perceptible drop in glucose level was seen,blood glucose levels; [10],up to 3 hours
same,time of lowest glucose level,"blood glucose levels; 1 mg porcine insulin mixed with 0.1 ml tocopherol acetate, topically on shaved skin",5.5 h
same,slow recovery to pre-treatment glucose levels after,blood glucose levels; transdermal insulin with tocopherol acetate,24 to 48 h
"O=C(O)c1ccccc1O [2-HBA, 2-hydroxy benzoic acid]",maximum synovial fluid levels,[4],14.5 µg/mL
same,time of maximum synovial fluid levels,[4],21.9 min
same,maximum plasma levels,[4],23 µg/mL
same,time of maximum plasma levels,[4],10.9 min
same,2-HBA level,[6]; after 120 hours,5 µg/mL
same,2-HBA level,[6]; in 20 hours,20 µg/mL
same,"2-HBA level, initial burst",[6]; within 6 hours,640 µg/mL
C[C@@H]1C[C@H]2[C@@H]3CCC4=CC(=O)C=C[C@]4(C)[C@@]3(F)[C@@H](O)C[C@]2(C)[C@@]1(O)C(=O)CO [dexamethasone],mean vitreous level of dexamethasone,"[7]; 25 μl injection, over a sixty day period",approximately 4.0 μg/ml
same,mean vitreous level of dexamethasone,"[7]; 50 μl, over a three-month period",approximately 8.0 μg/ml
same,mean concentration of released dexamethasone in vitreous humor,"[7]; high dose: 50 μl 25% DB (12 mg dexamethasone), Day 7 to Day 90",5.56 µg/mL
same,mean level of dexamethasone in vitreous humor,"[7]; low dose: 25 μl 25% DB (6 mg dexamethasone), Day 7 to Day 60",2.8 µg/mL
same,concentration at 60 day,"[7]; rabbit, vitreous humor, other: injected into the posterior segment of the eye, 6 mg, low dose: 25 μl 25% DB, end of the Day 7 to Day 60 period, read-out: mean level of dexamethasone in vitreous humor, declined to",800 ng/mL
same,concentration at 90 day,"[7]; rabbit, vitreous humor, other: injected into the posterior segment of the eye, 12 mg, high dose: 50 μl 25% DB, by Day 90, read-out: mean level of dexamethasone in vitreous humor",1850 ng/mL
"CO[C@H]1C[C@@H]2CC[C@@H](C)[C@@](O)(O2)C(=O)C(=O)N2CCCC[C@H]2C(=O)O[C@H]([C@H](C)C[C@@H]2CC[C@@H](O)[C@H](OC)C2)CC(=O)[C@H](C)/C=C(\C)[C@@H](O)[C@@H](OC)C(=O)[C@H](C)C[C@H](C)/C=C/C=C/C=C/1C [Rapamycin, rapamycin]",duration of release of Rapamycin,[8],over five
